In US6338963B1, “Use of carbon monoxide dependent guanylyl cyclase modifiers to stimulate neuritogenesis” (NeoTherapeutics, Inc., priority 1994, dated 2002):
Marks after values point to notes of the source that are not given here.

Tests used:
[1] = system: cGMP levels in PC12 cells; assay: cGMP levels in PC12 cells (radioimmunoassay); type: cell-based, rat; details: NGF-primed PC12 cells
Description: Initially, PC-12 cells were primed with 40 ng/ml NGF for 3 days in low serum medium (1.5% horse serum+5% fetal calf serum). Cells were seeded onto assay plates in low serum medium containing 40 ng/ml NGF and incubated for 1 hour. The medium was changed to low arginine medium (80 μM) with no serum and NGF and papaverine ([…]) where indicated. Test compounds were added for the indicated time and the reaction was stopped by adding 5% TCA containing 10,000 dpm of ^3H-cGMP. cGMP was assayed by the radioimmunoassay method of Maurice (Mol. Pharmacol. 37: 671-681, 1990). TCA was purified by adding powdered charcoal (5 g) and filtering the mixture through Whatman #1 paper. This removed contaminants in the TCA that otherwise interfere with the radioimmunoassay (RIA) of cGMP.
It was necessary to purify the cGMP from cAMP and other contaminants before radioimmunoassay since these other materials can interfere with the assay. Briefly, the TCA solution was applied to Dowex columns (50W-8X, 200-400 mesh) and eluted. A neutral alumina column was then placed under each Dowex column. The cGMP was eluted from the Dowex columns into neutral alumina columns by adding 4 mL of 0.05 M HCl to each Dowex column. The neutral alumina columns were then sequentially rinsed with 2 ml of HCl, 4 mL water and finally with 0.2 M sodium acetate (pH 6.2). The cGMP collected for the RIA eluted in 1 ML of sodium acetate with a recovery between 50-65%. The cGMP was assayed using a Dupont RIA kit.

[2] = system: cultured neurons from rat cerebral cortex; assay: NMDA-induced toxicity in cultured rat cortical neurons, astrocyte conditioned medium; type: cell-based
Description: In these experiments, cultured neurons were prepared from rat cerebral cortex. In these cultures the NMDA pulse (100 μM for 10 min) provoked about 80% neuronal death (measured by Trypan blue cell staining or LDH activity). Separately, cultured astrocytes were treated for 6 hours with AIT-082. Then, the medium containing the drug was replaced with fresh medium without the drug and the astrocyte cultures were maintained in this medium for the next 24 hours. This medium represented the CM and was added to neurons soon after the toxic pulse with NMDA. The addition of CM partly counteracted the toxic effects caused by NMDA, reducing the neuronal damage by about 50%. If the medium was boiled for 20 min at 100° C. prior to addition to NMDA-damaged neurons, it completely lost the protective activity. […] To verify whether the neuroprotection caused by AIT-082 was ascribable to the production of TGFβ2 or NGF, antibodies to TGFβ2 or to NGF (100 ng/ml) were added together with CM.
Conversely, when DPCPX (100 nm) was added to astrocyte cultures together with AIT-082, the neuroprotective effect of the resulting CM deriving from the culture of the astrocytes with AIT-082 was reduced by only 20%, as compared to the neuroprotective effect of CM derived from astrocytes exposed to AIT-082 alone (assumed as equal to 100%).

NGF = NGF release from rat cultured astrocytes (ELISA); type: cell-based; details: for effect of inhibitor on AIT-082-induced accumulation of NGF: 100 nm wortmannin, 10 μM PD098,059 or 500 ng/ml CHX added 30 min before and kept 24 hours with 100 μM AIT-082
Description: The dose response for AIT-082 and guanosine on nerve growth factor and S100β protein release from rat culture astrocytes is shown in FIG. 30. NGF was assayed by a double-site ELISA, using a monoclonal anti-NGF antibody, coupled or not to β-galactosidase according to the method of I. D. Laviada et al., “Phosphatidylcholine-Phospholipase C Mediates the Induction of Nerve Growth Factor in Cultured Glial Cells,” FEBS Lett. 364: 301-304 (1995).
(§1) The NGF and S100β protein were measured by removing the cultured medium for the ELISA assays at each indicated time point.
(§2) NGF and TGFβ2 levels were assayed in the culture medium of the astrocytes by specific ELISA assays using kits from Roche (Germany) and Promega (USA) respectively. NGF basal levels were 56.3±3.2 pg/ml. TGFβ2 levels were 9.1±0.06 pg/ml.
(§3) In FIG. 61, the dose-response curves of NGF and TGFβ2 release from rat cultured astrocytes as the result of exposure to AIT-082 are shown.

TGFβ2 = TGFβ2 release from rat cultured astrocytes (ELISA); type: cell-based; details: 100 nm wortmannin, 10 μM PD098,059 or 500 ng/ml CHX added 30 min before and kept 24 hours with 100 μM AIT-082
Description: as §2, §3

S100β protein = S100β protein release from rat cultured astrocytes (ELISA); type: cell-based; details: cycloheximide 0.5 μg/ml, AIT-082 100 μ
Description: The S100β protein was measured by using an ELISA as described in A. Aurell et al., “The S-100 Protein in Cerebrospinal Fluid: A Simple ELISA Method,” J.Neurol. Sci. 89: 157-164 (1989).
as §1

Swiss Webster mice [3] = assay: Win-shift test, Swiss Webster mice with age-induced memory deficits; type: in vivo; details: PHY 0.125 mg/kg
Description: Twelve-month old male Swiss Webster mice were screened for performance in the win-shift foraging test. Subjects were tested at various time delays, beginning at 10 seconds and increasing the inter-trial time interval to 30, 60, 90 and 120 seconds.
Subjects with severe impairment could not remember the correct response at 10 seconds while subjects with mild deficit could remember the correct response with a 30 second inter-trial interval but not at 60 seconds. Subjects with a moderate deficit could remember the correct response with a 10 second inter-trial interval but not […] at 30 seconds. Thus, the win-shift model can detect age-induced impairments in working memory. As will be appreciated by those skilled in the art, this observation is important since it provides the ability to use age-matched subjects with varying degrees of impairment for evaluation of potential therapeutic agents.
Following the establishment of a baseline, six subjects in each of the three groups were treated with AIT-82 (30 mg/kg, one hour before testing) or physostigmine (0.125 mg/kg, 30 minutes before testing) using the win-shift foraging test. The results are presented in Table L directly below and graphically represented in FIG. 9.

C57BL/6 mice [4] = assay: Win-shift duration of memory trace, C57BL/6 mice; type: in vivo; details: for Correct (Mean score ± S.E.) / No. above chance/Total #: Physostigmine 0.125 mg/kg
Description: (§4) To determine the duration of the memory trace, subjects were administered drug or saline and 30 minutes (PHY) or 1 hour (AIT-082 or THA) later they were given a single reference run with the milk reward in both goal boxes. After the indicated inter-trial delay, subjects were returned to the start box and given the first test trial with the milk reward only in the goal box opposite to the one entered on the previous correct trial. The subjects were given 10 trials with the reward alternating only after correct responses.
Previous work has established that normal adult Swiss Webster mice have a memory trace duration of 60 seconds in the win-shift paradigm which may be increased by the administration of AIT-082.

Swiss Webster mice [5] = assay: Win-shift T-maze memory test, Swiss Webster mice; type: in vivo; details: 90-second inter-trial interval, PHY 0.125 mg/kg i.p.
Description: Male Swiss Webster mice six months (young adult) and eleven months (old) of age, obtained from the National Institute on Aging, were maintained in individual cages, on a […] light/dark cycle with continuous access to water. Food was limited so that the mice stabilized at 80% of free feeding weight. Mice were weighed and handled daily for one week. The win-shift model was run as described in the literature and consists of a T-maze in which the correct response alternates after each correct trial. The interval between trials is varied and allows for the determination of the longest period between trials that a subject can remember the correct response on the previous trial. This allows the measure of the duration of the memory trace. […] The reward goal box is alternated after each correct trial. Ten trials per mouse are run each day. […] The latency time to leave the start box is recorded as a measure of motivation, the running time (the time from leaving the start box to reaching the goal box) is recorded as a measure of performance, and the number of correct responses as a measure of memory.
The drugs used in this example are 4-((3-(1,6-dihydro-6-oxo-9-purin-9-yl)-1-oxopropyl)amino) benzoic acid (AIT-082), as an exemplary potassium salt, tacrine hydrochloride (tetrahydroaminoacridine, THA, Sigma Chemical Co., St. Louis, Mo.), and physostigmine, hemisulfate salt (PHY, Sigma Chemical Co., St. Louis, Mo.). The drugs were dissolved in saline and prepared fresh daily. All injections were made at a volume of 0.1 ml/10 grams body weight. When testing drug effects, intraperitoneal (i.p.) injections of AIT-082 or THA were made one hour prior to the start of testing. Due to its shorter duration of action, PHY was injected 30 minutes prior to testing. Control subjects receive a similar injection of saline (vehicle).
as §4
To determine if tolerance to the biological effects of AIT-082 developed, drug or saline was administered daily for 18 days prior to the testing in the standard win-shift paradigm.

C57BL/6 mice [6] = assay: Win-shift test, C57BL/6 mice with age-induced memory deficits; type: in vivo; details: for subjects performing significantly above chance/total number of subjects: PHY 0.125 mg/kg
Description: Twelve-month old male C57BL/6 mice were screened for performance in the win-shift foraging test. Subjects were tested at various inter-trial time intervals. Subjects who could not perform to criteria (>60% correct) at 10 seconds delay were classified as having a severe deficit. Subjects who performed to criteria at 10 seconds but not at 30 seconds were classified as having a moderate degree of deficit and subjects who performed to criteria at 30 seconds but not at 60 seconds were classified as having mild deficit. As in Example 21, subjects in each group were treated with either AIT-082 or PHY to determine the extent to which the working memory trace was prolonged. The results are presented in Table M directly below and graphically represented in FIG. 10.

[7] = Moderate deficit, interval 30 sec
[8] = Moderate deficit, interval 60 sec
[9] = Severe deficit, interval <10 sec

## CNc1ccc2oc(C[C@H]3O[C@@]4(CC[C@H]3C)O[C@H]([C@H](C)C(=O)c3ccc[nH]3)[C@H](C)C[C@H]4C)nc2c1C(=O)O [A23187, reference compound]
[1]
  cGMP in PC12 cells: failed to elicit an increase in cGMP

## CCCn1c(=O)c2[nH]c(C3CCCC3)nc2n(CCC)c1=O [DPCPX, 8-cyclopentyl-1,3-dipropylxanthine]
[2]; DPCPX 100 nm added to astrocyte cultures together with AIT-082
  reduction of neuroprotective effect of resulting CM: 20%
[2]; DPCPX 100 nm added with CM to injured cortical neurons
  effect on neuroprotective effect of astrocyte-derived CM: did not modify the neuroprotective effect

## COc1cccc(-c2cc(=O)c3ccccc3o2)c1N [PD098,059, reference compound]
NGF
  effect of inhibitor on AIT-082-induced accumulation of NGF: partly inhibited
TGFβ2
  effect of inhibitor on AIT-082-induced accumulation of TGFβ2: partly inhibited

## C[C@@H]1C[C@@H]([C@H](O)CC2CC(=O)NC(=O)C2)C(=O)[C@@H](C)C1 [cycloheximide, reference compound]
NGF
  effect of inhibitor on AIT-082-induced accumulation of NGF: partly inhibited
NGF; cycloheximide 0.5 μg/ml, AIT-082 100 μ
  effect of cycloheximide on AIT-082-evoked release of NGF: abolished the stimulatory effect of AIT-082
S100β protein
  effect of cycloheximide on AIT-082-evoked accumulation of S100β protein: only slightly modified
TGFβ2
  effect of inhibitor on AIT-082-induced accumulation of TGFβ2: partly inhibited

## physostigmine, hemisulfate salt [reference compound]
Swiss Webster mice [3]; Mild deficit, interval 60 sec
  subjects performing significantly above chance/total number of subjects: 5/6*
Swiss Webster mice [3]; Mild deficit, interval 90 sec
  subjects performing significantly above chance/total number of subjects: 3/6
Swiss Webster mice [3]; Mild deficit, interval 120 sec
  subjects performing significantly above chance/total number of subjects: 2/6
Swiss Webster mice [3]; Mild deficit, interval 150 sec
  subjects performing significantly above chance/total number of subjects: 2/6
Swiss Webster mice [3]; Mild deficit, interval 180 sec
  subjects performing significantly above chance/total number of subjects: 1/6
Swiss Webster mice [3]; Mild deficit, interval 210 sec
  subjects performing significantly above chance/total number of subjects: 0/6
Swiss Webster mice [3]; [7]
  subjects performing significantly above chance/total number of subjects: 1/6
Swiss Webster mice [3]; [8]
  subjects performing significantly above chance/total number of subjects: 0/6
Swiss Webster mice [3]; [9]
  subjects performing significantly above chance/total number of subjects: 0/6
C57BL/6 mice [4]; inter-trial interval 180 sec
  Correct (Mean score ± S.E.): 65 ± 16
  No. above chance/Total #: 3/6
C57BL/6 mice [4]; inter-trial interval 210 sec
  Correct (Mean score ± S.E.): 53 ± 9
  No. above chance/Total #: 1/6
C57BL/6 mice [4]; physostigmine, untreated 120 seconds
  duration of the memory trace: 180 s
Swiss Webster mice [5]
  Win-shift Memory Test, Correct responses: 6.5 Correct responses/10 trials
C57BL/6 mice [6]; Mild deficit, interval 60 sec
  subjects performing significantly above chance/total number of subjects: 7/8*
C57BL/6 mice [6]; Mild deficit, interval 90 sec
  subjects performing significantly above chance/total number of subjects: 3/8
C57BL/6 mice [6]; Mild deficit, interval 120 sec
  subjects performing significantly above chance/total number of subjects: 2/8
C57BL/6 mice [6]; Mild deficit, interval 150 sec
  subjects performing significantly above chance/total number of subjects: 2/8
C57BL/6 mice [6]; Mild deficit, interval 180 sec
  subjects performing significantly above chance/total number of subjects: 2/8
C57BL/6 mice [6]; Mild deficit, interval 210 sec
  subjects performing significantly above chance/total number of subjects: 0/8
C57BL/6 mice [6]; Moderate deficit, interval 10 sec
  subjects performing significantly above chance/total number of subjects: 6/6
C57BL/6 mice [6]; [7]
  subjects performing significantly above chance/total number of subjects: 1/6
C57BL/6 mice [6]; [8]
  subjects performing significantly above chance/total number of subjects: 0/6
C57BL/6 mice [6]; [9]
  subjects performing significantly above chance/total number of subjects: 0/6
C57BL/6 mice [6]; moderate deficit group, PHY
  prolongation of memory: ineffective in the moderate group
